Experiments:
Assay in all cases: relative viability (nuclei count vs DMSO), 5 days (fraction); higher = more cells survive
[1] = test system: NCI-H727
Outline: (§1)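 Lung cancer cell lines in 1536-well plates were dosed by pin tool the day after seeding, either with one drug alone or with a fixed anchor-drug dose plus five library-drug doses (not always all listed) in √10 steps. After 5 days, cells were fixed and their nuclei stained in one step (final 0.05% Triton X-100, 1% formaldehyde, 1 ug/ml Hoechst), then counted on 4× images. Relative viability is the nuclei count in treated wells divided by that in vehicle wells. Values are medians of duplicate plates.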

[2] = test system: NCI-H1650
Outline: as §1

[3] = test system: SK-LU-1
Outline: as §1

[4] = test system: LXF-289
Outline: as §1

[5] = test system: LCLC-97TM1
Outline: as §1

[6] = test system: HCC-827
Outline: as §1

[7] = test system: NCI-H322M
Outline: as §1

[8] = test system: NCI-H2405
Outline: as §1

[9] = test system: HCC-44
Outline: as §1

[10] = test system: NCI-H1437
Outline: as §1

[11] = test system: BEN
Outline: as §1

[12] = test system: HOP-62
Outline: as §1

[13] = test system: NCI-H3122
Outline: as §1

[14] = test system: NCI-H647
Outline: as §1

[15] = test system: LCLC-103H
Outline: as §1

[16] = test system: NCI-H2228
Outline: as §1

[17] = test system: 201T
Outline: as §1

[18] = test system: NCI-H2087
Outline: as §1

[19] = test system: RERF-LC-KJ
Outline: as §1

[20] = test system: CAL-12T
Outline: as §1

Question: How did the relative viability ([1]; first compound 0.08 µM) turn out when Oc1nc(-c2ccc(C(F)(F)F)cc2)nc2c1CSCC2 [XAV939] + CC(C)C[C@H](NC(=O)[C@H](Cc1ccccc1)NC(=O)c1cnccn1)B(O)O [Bortezomib] (partner 0.002 µM) was run?
Answer: 1.05

Question: And the relative viability ([1]; first compound 0.253 µM)?
Answer: 0.589

Question: What about the relative viability ([1]; first compound 0.8 µM) of the same compound?
Answer: 0.803

Question: What about the relative viability ([1]; first compound 2.53 µM) of the same compound?
Answer: 0.957

Question: What about the relative viability ([2]; first compound 0.08 µM) of the same compound?
Answer: 0.178

Question: What about the relative viability ([2]; first compound 0.253 µM) of the same compound?
Answer: 0.211

Question: What about the relative viability ([2]; first compound 0.8 µM) of the same compound?
Answer: 0.222

Question: What about the relative viability ([2]; first compound 2.53 µM) of the same compound?
Answer: 0.215

Question: And the relative viability ([3]; first compound 0.08 µM)?
Answer: 1.16

Question: And the relative viability ([3]; first compound 0.253 µM)?
Answer: 1.13

Question: What about the relative viability ([3]; first compound 0.8 µM) of the same compound?
Answer: 1.05

Question: And the relative viability ([3]; first compound 2.53 µM)?
Answer: 1.39

Question: And the relative viability ([4]; first compound 0.08 µM)?
Answer: 1.05

Question: And the relative viability ([4]; first compound 0.253 µM)?
Answer: 0.966

Question: And the relative viability ([4]; first compound 0.8 µM)?
Answer: 0.994

Question: And the relative viability ([4]; first compound 2.53 µM)?
Answer: 1.05

Question: What about the relative viability ([5]; first compound 0.08 µM) of the same compound?
Answer: 0.589

Question: What about the relative viability ([5]; first compound 0.253 µM) of the same compound?
Answer: 0.517

Question: And the relative viability ([5]; first compound 0.8 µM)?
Answer: 0.472

Question: And the relative viability ([5]; first compound 2.53 µM)?
Answer: 0.505

Question: And the relative viability ([6]; first compound 0.08 µM)?
Answer: 1.03

Question: And the relative viability ([6]; first compound 0.253 µM)?
Answer: 0.868

Question: What about the relative viability ([6]; first compound 0.8 µM) of the same compound?
Answer: 1.07

Question: What about the relative viability ([6]; first compound 2.53 µM) of the same compound?
Answer: 1.09

Question: What about the relative viability ([7]; first compound 0.08 µM) of the same compound?
Answer: 1.39

Question: And the relative viability ([7]; first compound 0.253 µM)?
Answer: 0.996

Question: What about the relative viability ([7]; first compound 0.8 µM) of the same compound?
Answer: 1.1

Question: What about the relative viability ([7]; first compound 2.53 µM) of the same compound?
Answer: 0.976

Question: What about the relative viability ([8]; first compound 0.08 µM) of the same compound?
Answer: 1.04

Question: What about the relative viability ([8]; first compound 0.253 µM) of the same compound?
Answer: 0.719

Question: And the relative viability ([8]; first compound 0.8 µM)?
Answer: 0.893

Question: What about the relative viability ([8]; first compound 2.53 µM) of the same compound?
Answer: 0.959

Question: And the relative viability ([9]; first compound 0.08 µM)?
Answer: 0.909

Question: What about the relative viability ([9]; first compound 0.253 µM) of the same compound?
Answer: 0.809

Question: What about the relative viability ([9]; first compound 0.8 µM) of the same compound?
Answer: 0.854

Question: What about the relative viability ([9]; first compound 2.53 µM) of the same compound?
Answer: 0.824

Question: What about the relative viability ([10]; first compound 0.08 µM) of the same compound?
Answer: 0.641

Question: What about the relative viability ([10]; first compound 0.253 µM) of the same compound?
Answer: 0.548

Question: What about the relative viability ([10]; first compound 0.8 µM) of the same compound?
Answer: 0.512

Question: What about the relative viability ([10]; first compound 2.53 µM) of the same compound?
Answer: 0.376

Question: What about the relative viability ([11]; first compound 0.08 µM) of the same compound?
Answer: 0.709

Question: And the relative viability ([11]; first compound 0.253 µM)?
Answer: 0.733

Question: What about the relative viability ([11]; first compound 0.8 µM) of the same compound?
Answer: 0.559

Question: What about the relative viability ([12]; first compound 0.08 µM) of the same compound?
Answer: 1.19

Question: And the relative viability ([12]; first compound 0.253 µM)?
Answer: 0.73

Question: And the relative viability ([12]; first compound 0.8 µM)?
Answer: 0.988

Question: What about the relative viability ([12]; first compound 2.53 µM) of the same compound?
Answer: 0.352

Question: What about the relative viability ([13]; first compound 0.08 µM) of the same compound?
Answer: 1.09

Question: What about the relative viability ([13]; first compound 0.253 µM) of the same compound?
Answer: 1.01

Question: And the relative viability ([13]; first compound 0.8 µM)?
Answer: 1.03

Question: And the relative viability ([13]; first compound 2.53 µM)?
Answer: 0.944

Question: And the relative viability ([14]; first compound 0.08 µM)?
Answer: 1.16

Question: And the relative viability ([14]; first compound 0.253 µM)?
Answer: 0.747

Question: What about the relative viability ([14]; first compound 0.8 µM) of the same compound?
Answer: 0.81

Question: And the relative viability ([14]; first compound 2.53 µM)?
Answer: 0.988

Question: And the relative viability ([15]; first compound 0.08 µM)?
Answer: 0.936

Question: And the relative viability ([15]; first compound 0.253 µM)?
Answer: 1.11

Question: What about the relative viability ([15]; first compound 0.8 µM) of the same compound?
Answer: 0.861

Question: And the relative viability ([15]; first compound 2.53 µM)?
Answer: 1.01

Question: What about the relative viability ([16]; first compound 0.08 µM) of the same compound?
Answer: 1.31

Question: What about the relative viability ([16]; first compound 0.253 µM) of the same compound?
Answer: 0.711

Question: And the relative viability ([16]; first compound 0.8 µM)?
Answer: 1.01

Question: What about the relative viability ([16]; first compound 2.53 µM) of the same compound?
Answer: 0.861

Question: And the relative viability ([17]; first compound 0.08 µM)?
Answer: 1.12

Question: What about the relative viability ([17]; first compound 0.253 µM) of the same compound?
Answer: 0.981

Question: What about the relative viability ([17]; first compound 0.8 µM) of the same compound?
Answer: 1.08

Question: What about the relative viability ([17]; first compound 2.53 µM) of the same compound?
Answer: 0.979

Question: What about the relative viability ([18]; first compound 0.08 µM) of the same compound?
Answer: 0.864

Question: What about the relative viability ([18]; first compound 0.253 µM) of the same compound?
Answer: 0.595

Question: And the relative viability ([18]; first compound 0.8 µM)?
Answer: 0.938

Question: What about the relative viability ([18]; first compound 2.53 µM) of the same compound?
Answer: 0.763

Question: And the relative viability ([19]; first compound 0.08 µM)?
Answer: 0.864

Question: And the relative viability ([19]; first compound 0.253 µM)?
Answer: 0.98

Question: And the relative viability ([19]; first compound 0.8 µM)?
Answer: 0.886

Question: What about the relative viability ([19]; first compound 2.53 µM) of the same compound?
Answer: 0.744

Question: What about the relative viability ([20]; first compound 0.08 µM) of the same compound?
Answer: 0.981

Question: What about the relative viability ([20]; first compound 0.253 µM) of the same compound?
Answer: 0.856

Question: And the relative viability ([20]; first compound 0.8 µM)?
Answer: 0.89

Question: And the relative viability ([20]; first compound 2.53 µM)?
Answer: 0.977

Source: the supplement of paper PMC10307832
